Values joined by “and” are separate entries in the source; they are usually repeats but may differ in a detail not shown here. Equal entries are not always repeated. Inconclusive results and toxic doses are left out.
System: nude mice, LOX melanoma ip, survival T/C
Experiment: NCI In Vivo Anticancer Drug Screen. Data for tumor model Human Amelanotic Melanoma (LOX) (intraperitoneal) in NU/NU BALB/C (nude) mice
Conditions: endpoint: median survival time, higher = longer survival
Description: The antitumor activity of compounds was measured in mice bearing transplantable tumors. Survival or tumor size were measured and the results are expressed as the measurement made in the treated group (T) divided by the measurement made in the vehicle treated control group (C). The tumor model used in this assay is Human Amelanotic Melanoma (LOX) (intraperitoneal) in NU/NU BALB/C (nude) mice

SMILES: O=NN(CCCl)C(=O)NCCCl
- T/C (dose: 1.88 mg/kg/injection, schedule: Q01DX005 (ip), vehicle: saline + alcohol): 122 % of control
- T/C (dose: 2.5 mg/kg/injection, schedule: Q01DX015 (ip), vehicle: saline + alcohol): 185 % of control
- T/C (dose: 3.75 mg/kg/injection, schedule: Q01DX005 (ip), vehicle: saline + alcohol): 163 % of control
- T/C (dose: 5.0 mg/kg/injection, schedule: Q01DX001 (ip), vehicle: saline + alcohol): 117 % of control
- T/C (dose: 5.0 mg/kg/injection, schedule: Q01DX015 (ip), vehicle: saline + alcohol): 193 % of control
- T/C (dose: 7.5 mg/kg/injection, schedule: Q01DX005 (ip), vehicle: saline + alcohol): 218 % of control
- T/C (dose: 10.0 mg/kg/injection, schedule: Q04DX003 (ip), vehicle: saline + alcohol): 185 % of control
- T/C (dose: 12.0 mg/kg/injection, schedule: Q04DX003 (ip), vehicle: saline + alcohol): 118 % of control
- T/C (dose: 12.0 mg/kg/injection, schedule: Q04DX003 (iv), vehicle: saline + alcohol): 220 % of control
- T/C (dose: 15.0 mg/kg/injection, schedule: Q01DX005 (ip), vehicle: saline + alcohol): 191 % of control
- T/C (dose: 18.0 mg/kg/injection, schedule: Q04DX003 (ip), vehicle: saline + alcohol): 116 % of control
- T/C (dose: 18.0 mg/kg/injection, schedule: Q04DX003 (iv), vehicle: saline + alcohol): 331 % of control
- T/C (dose: 20.0 mg/kg/injection, schedule: Q01DX001 (ip), vehicle: saline + alcohol): 177 % of control
- T/C (dose: 20.0 mg/kg/injection, schedule: Q04DX003 (ip), vehicle: saline + alcohol): 175 % of control
- T/C (dose: 27.0 mg/kg/injection, schedule: Q04DX003 (ip), vehicle: saline + alcohol): 116 % of control
- T/C (dose: 27.0 mg/kg/injection, schedule: Q04DX003 (iv), vehicle: saline + alcohol): 331 % of control
- T/C (dose: 40.0 mg/kg/injection, schedule: Q01DX001 (ip), vehicle: saline + alcohol): 171 % of control
- T/C (dose: 40.0 mg/kg/injection, schedule: Q04DX003 (ip), vehicle: saline + alcohol): 218 % of control
- T/C (dose: 80.0 mg/kg/injection, schedule: Q01DX001 (ip), vehicle: saline + alcohol): 196 % of control

SMILES: Cc1c(O)/c(=C\O)c2nc3c(=O)ccc(C(=O)NCCN(C)C)c3[nH]c2c1=O
- T/C (dose: 25.0 mg/kg/injection, schedule: Q04DX003 (ip), vehicle: water): 95 % of control and 97 % of control
- T/C (dose: 50.0 mg/kg/injection, schedule: Q04DX003 (ip), vehicle: water): 104 % of control and 98 % of control
- T/C (dose: 86.4 mg/kg/injection, schedule: Q04DX003 (ip), vehicle: water): 95 % of control
- T/C (dose: 100.0 mg/kg/injection, schedule: Q04DX003 (ip), vehicle: water): 101 % of control and 104 % of control
- T/C (dose: 144.0 mg/kg/injection, schedule: Q04DX003 (ip), vehicle: water): 99 % of control

SMILES: COc1c2c(c(O)c3c4c(c(C)cc13)C1OC3(C(OC)OC5CC(C)(O)C(OC6CC(C)(O)C(O)C(C)O6)C(C)O5)OC1C(OC)(O4)C31CO1)C(=O)C(O)CC2OC1CC(C)(O)C(OC(C)=O)C(C)O1 (stereo unspecified)
- T/C (dose: 12.5 micrograms/kg/injection, schedule: Q04DX003 (ip), vehicle: saline): 261 % of control
- T/C (dose: 25.0 micrograms/kg/injection, schedule: Q04DX003 (ip), vehicle: saline): 181 % of control
- T/C (dose: 50.0 micrograms/kg/injection, schedule: Q04DX003 (ip), vehicle: saline): 107 % of control

SMILES: COC(=O)NC1C(C)OC(OC2C/C=C(/C)C3C=CC4C(OC5CC(OC6CC(OC7CC(O)C(O)C(C)O7)C(OC7CC(O)C(OC)C(C)O7)C(C)O6)C(O)C(C)O5)C(C)CC(C)C4C3(C)/C(O)=C3\C(=O)OC4(CC(C)C(CO)=CC4/C=C\2C)C3=O)CC1(C)[N+](=O)[O-] (stereo unspecified)
- T/C (dose: 75.0 mg/kg/injection, schedule: Q04DX003 (ip), vehicle: water): 93 % of control
- T/C (dose: 150.0 mg/kg/injection, schedule: Q04DX003 (ip), vehicle: water): 120 % of control

SMILES: COc1cc(C2=NCCc3cc4c(cc32)OCO4)cc(OC)c1OC
- T/C (dose: 18.75 mg/kg/injection, schedule: Q04DX003 (ip), vehicle: saline + alcohol): 114 % of control
- T/C (dose: 37.5 mg/kg/injection, schedule: Q04DX003 (ip), vehicle: saline + alcohol): 115 % of control
- T/C (dose: 75.0 mg/kg/injection, schedule: Q04DX003 (ip), vehicle: saline + alcohol): 110 % of control
- T/C (dose: 150.0 mg/kg/injection, schedule: Q04DX003 (ip), vehicle: saline + alcohol): 115 % of control

SMILES: NC(=O)c1cc(Cl)nc2nc(Cl)nc(N)c12
- T/C (dose: 150.0 mg/kg/injection, schedule: Q04DX003 (ip), vehicle: saline with Tween-80): 92 % of control
- T/C (dose: 300.0 mg/kg/injection, schedule: Q04DX003 (ip), vehicle: saline with Tween-80): 111 % of control
- T/C (dose: 600.0 mg/kg/injection, schedule: Q04DX003 (ip), vehicle: saline with Tween-80): 94 % of control

— PubChem BioAssay AID280 (DTP/NCI, 2004)
